Assays:
Assay in all cases: relative viability (nuclei count vs DMSO), 5 days (fraction); higher = more cells survive
[1] = compound: CN1C=C(C2=CC=CC=C21)/C=C\3/C4=C(C=CC=N4)NC3=O + N=C(N)NC(=N)NCCc1ccccc1 [Phenformin] (partner 250 µM)
How it was run: (§1)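 Relative viability is defined as nuclei in treated wells over nuclei in vehicle wells. Duplicate plates were run and medians reported. Lung cancer cell lines in 1536-well plates were dosed by pin tool one day after seeding, with one drug or with a fixed anchor-drug dose plus five library-drug doses (not always all listed) in √10 steps, and nuclei were counted after 5 days.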

Trametinib + OSI-027 = compound: CC(=O)Nc1cccc(-n2c(=O)n(C3CC3)c(=O)c3c(Nc4ccc(I)cc4F)n(C)c(=O)c(C)c32)c1 [Trametinib] + COc1cccc2cc(-c3nc([C@H]4CC[C@H](C(=O)O)CC4)n4ncnc(N)c34)[nH]c12 [OSI-027] (partner 0.5 µM)
How it was run: as §1

Trametinib + Crizotinib = compound: CC(=O)Nc1cccc(-n2c(=O)n(C3CC3)c(=O)c3c(Nc4ccc(I)cc4F)n(C)c(=O)c(C)c32)c1 [Trametinib] + C[C@@H](Oc1cc(-c2cnn(C3CCNCC3)c2)cnc1N)c1c(Cl)ccc(F)c1Cl [Crizotinib] (partner 1 µM)
How it was run: as §1

[2] = compound: CN1C=C(C2=CC=CC=C21)/C=C\3/C4=C(C=CC=N4)NC3=O + Cc1nc(Nc2ncc(C(=O)Nc3c(C)cccc3Cl)s2)cc(N2CCN(CCO)CC2)n1 [Dasatinib] (partner 0.075 µM)
How it was run: as §1

Row | Cell Line | relative viability ([1]; first compound 0.02 µM) | relative viability ([1]; first compound 0.06325 µM) | relative viability ([1]; first compound 0.2 µM) | relative viability ([1]; first compound 0.6325 µM) | relative viability ([1]; first compound 2 µM) | relative viability (Trametinib + OSI-027; first compound 0.0025 µM) | relative viability (Trametinib + OSI-027; first compound 0.007906 µM) | relative viability (Trametinib + OSI-027; first compound 0.025 µM) | relative viability (Trametinib + OSI-027; first compound 0.07906 µM) | relative viability (Trametinib + OSI-027; first compound 0.25 µM) | relative viability (Trametinib + Crizotinib; first compound 0.0025 µM) | relative viability (Trametinib + Crizotinib; first compound 0.007906 µM) | relative viability (Trametinib + Crizotinib; first compound 0.025 µM) | relative viability (Trametinib + Crizotinib; first compound 0.07906 µM) | relative viability (Trametinib + Crizotinib; first compound 0.25 µM) | relative viability ([2]; first compound 0.02 µM) | relative viability ([2]; first compound 0.06325 µM) | relative viability ([2]; first compound 0.2 µM) | relative viability ([2]; first compound 0.6325 µM) | relative viability ([2]; first compound 2 µM)
1 | NCI-H2009 | 0.486 | 0.518 | 0.509 | 0.502 | 0.513 | 0.505 | 0.405 | 0.229 | 0.226 | 0.247 | 1.08 | 0.586 | 0.336 | 0.301 | 0.266 | 0.265 | 0.295 | 0.261 | 0.333 | 0.315
2 | SW 900 | 0.468 | 0.434 |  | 0.589 | 0.809 | 0.629 | 0.539 | 0.424 | 0.428 | 0.167 |  |  |  |  |  | 0.495 | 0.585 |  | 0.537 | 0.481
3 | NCI-H441 | 0.795 | 0.754 | 0.804 | 0.88 | 0.772 | 0.543 | 0.56 | 0.392 | 0.446 | 0.196 | 0.757 | 0.691 | 0.608 | 0.448 | 0.294 | 0.541 | 0.638 | 0.548 | 0.538 | 0.677
4 | NCI-H1623 | 0.631 | 0.537 | 0.546 | 0.513 | 0.564 | 0.361 | 0.35 | 0.326 | 0.28 | 0.311 |  |  |  |  |  | 0.469 | 0.625 | 0.49 | 0.457 | 0.505
5 | NCI-H1437 | 0.307 | 0.325 | 0.231 | 0.28 | 0.267 | 0.565 | 0.518 | 0.262 | 0.3 | 0.295 | 0.952 | 0.883 | 0.572 | 0.373 | 0.472 | 0.411 | 0.416 | 0.3 | 0.455 | 0.479
6 | PC-14 | 0.54 | 0.482 |  | 0.575 | 0.447 | 0.843 | 0.72 | 0.427 | 0.411 | 0.155 | 0.994 | 0.909 | 0.815 | 0.686 | 0.55 | 0.227 | 0.223 | 0.194 | 0.205 | 0.186
7 | LCLC-103H | 0.303 | 0.256 | 0.317 | 0.322 | 0.331 | 0.463 | 0.44 | 0.379 | 0.334 | 0.421 | 0.938 | 1.07 | 0.799 | 0.756 | 0.76 | 0.516 | 0.355 | 0.481 | 0.417 | 0.478
8 | COR-L23 | 0.429 | 0.396 | 0.394 | 0.48 | 0.441 | 0.686 | 0.7 | 0.364 | 0.455 | 0.249 | 0.66 | 0.682 | 0.665 | 0.425 | 0.337 | 0.551 | 0.449 | 0.494 | 0.51 | 0.529
9 | H3255 | 0.384 | 0.36 | 0.341 | 0.327 | 0.366 | 0.595 | 0.571 | 0.462 | 0.397 | 0.338 | 0.845 | 0.931 | 0.799 | 0.715 | 0.48 | 0.438 | 0.349 | 0.323 | 0.324 | 0.322
10 | NCI-H2126 | 0.506 | 0.508 | 0.507 | 0.519 | 0.505 | 0.671 | 0.506 | 0.375 | 0.535 | 0.488 | 1.01 | 0.959 | 0.788 | 0.832 | 0.749 | 0.548 | 0.534 | 0.547 | 0.545 | 0.432
11 | HCC-366 | 0.578 | 0.641 | 0.602 | 0.664 | 0.667 | 0.684 | 0.763 | 0.371 | 0.414 | 0.201 | 0.446 | 0.425 | 0.34 | 0.246 | 0.0629 | 0.641 | 0.455 | 0.44 | 0.593 | 0.468
12 | LU99A | 0.874 | 0.846 | 0.695 | 0.602 | 0.8 | 0.301 | 0.294 | 0.287 | 0.326 | 0.297 | 0.554 | 0.489 | 0.473 | 0.368 | 0.214 | 0.67 | 0.457 | 0.437 | 0.669 | 0.612
13 | HCC-44 | 0.187 | 0.122 | 0.115 | 0.135 | 0.136 | 0.487 | 0.249 | 0.424 | 0.311 | 0.183 | 0.853 | 0.916 | 0.763 | 0.728 | 0.526 |  |  |  |  | 
14 | EBC-1 |  |  |  |  |  |  |  |  |  |  | 0.196 | 0.181 | 0.187 | 0.159 | 0.162 |  |  |  |  | 
15 | NCI-H1703 |  |  |  |  |  |  |  |  |  |  |  | 0.495 | 0.66 | 0.727 | 0.423 |  |  |  |  | 
16 | NCI-H1395 | 0.436 | 0.429 | 0.365 | 0.446 | 0.414 | 0.693 | 0.617 | 0.552 | 0.468 | 0.404 |  |  |  |  |  | 0.399 | 0.425 | 0.371 | 0.422 | 0.392
17 | NCI-H1299 |  |  |  |  |  |  |  |  |  |  | 0.951 | 0.926 | 0.869 | 0.848 | 0.521 |  |  |  |  | 
18 | A549 | 0.16 | 0.101 | 0.181 | 0.114 | 0.183 |  |  |  |  |  | 0.64 | 0.44 | 0.394 | 0.181 | 0.074 |  |  |  |  | 
19 | NCI-H522 | 0.579 | 0.672 | 0.703 | 0.58 | 0.644 | 0.592 | 0.653 | 0.595 | 1.57 | 0.587 |  |  |  |  |  | 0.896 | 0.803 | 0.844 | 0.784 | 0.874
20 | NCI-H1648 |  |  |  |  |  |  | 0.28 | 0.273 | 0.279 | 0.272 |  |  |  |  |  |  |  |  |  | 
21 | NCI-H2342 | 0.623 | 0.641 | 0.486 | 0.57 | 0.505 | 0.56 | 0.552 |  | 0.471 | 0.577 |  |  |  |  |  | 0.316 | 0.313 | 0.284 | 0.304 | 0.318
22 | Calu-6 |  |  |  |  |  |  |  |  |  |  | 0.737 | 0.557 | 0.398 | 0.168 | 0.107 |  |  |  |  | 
